PMC12156181, “Antitrypanosomal and Antileishmanial Activities of Tacca leontopetaloides Tubers and Zanthoxylum zanthoxyloides Stem Bark” (Molecules, 2025)
Like-named read-outs stand apart in the source and are kept apart here.

Tests used:
[1] = test system: T. b. brucei s427; test: resazurin drug sensitivity assay, T. b. brucei s427 wild-type bloodstream forms; assay type: cell-based, Trypanosoma brucei brucei; conditions: for T. b. brucei s427 SI: SI = EC50 (HEK)/EC50(parasite); for EC50: read-out: T. b. brucei s427 EC50
[2] = test system: T. b. brucei B48; test: microbe, parasite or virus in culture; assay type: cell-based, Trypanosoma brucei brucei; conditions: for T. b. brucei B48 RF: RF = EC50 (parasite)/EC50(s427 WT); for T. b. brucei B48 SI: SI = EC50 (HEK)/EC50(parasite)
[3] = test system: T. evansi (AnTat 3/3); test: resazurin drug sensitivity assay, T. evansi; assay type: cell-based, Trypanosoma evansi; conditions: for T. evansi RF: RF = EC50 (parasite)/EC50(s427 WT); for T. evansi SI: SI = EC50 (HEK)/EC50(parasite); for EC50: Trypanosoma evansi
[4] = test system: T. equiperdum (BoTat1); test: resazurin drug sensitivity assay, T. equiperdum; assay type: cell-based, Trypanosoma equiperdum; conditions: for T. equiperdum RF: RF = EC50 (parasite)/EC50(s427 WT); for T. equiperdum SI: SI = EC50 (HEK)/EC50(parasite)
[5] = test system: Trypanosoma congolense (IL3000); test: resazurin drug sensitivity assay, T. congolense; assay type: cell-based; conditions: for T. congolense RF: RF = EC50 (parasite)/EC50(s427 WT); for T. congolense SI: SI = EC50 (HEK)/EC50(parasite)
[6] = test system: Leishmania mexicana promastigotes; test: resazurin drug sensitivity assay, L. mexicana promastigotes; assay type: cell-based; conditions: for L. mexicana SI: SI = EC50 (HEK)/EC50(parasite)
[7] = test system: HEK 293 cells; test: toxicity assay on HEK 293 cells (Alamar Blue); conditions: for toxicity to HEK 293 cells at the highest concentration tested: highest tested concentration 100 or 200 µg/mL (1: 300 µM; 4: 140 µM; 5: 427 µM); for EC50: read-out: HEK 293 EC50, average ± SEM
[8] = test system: trypanosomes of the Trypanozoon subgenus (T. b. brucei, T. evansi and T. equiperdum); test: resazurin assay, summary over Trypanozoon subgenus trypanosomes; assay type: cell-based, Trypanosoma; conditions: for EC50: Trypanosoma brucei, T. b. brucei s427, B48, T. evansi, T. equiperdum, read-out: EC50 values against trypanosomes of the Trypanozoon subgenus (range)
[9] = test system: T. b. brucei s427; parameters: method as in PMID 27313159; conditions: cited from earlier work
[10] = test system: kinetoplastid parasites (trypanosomes and L. mexicana); test: resazurin assay, summary of anti-kinetoplastid activity across the board; assay type: cell-based; conditions: Leishmania mexicana, read-out: EC50, anti-kinetoplastid activity across the board (range)
[11] = test system: all trypanosome species; test: resazurin assay, summary over trypanosome species; assay type: cell-based, Trypanosoma
[12] = test system: T. b. brucei s427; parameters: method as in doi:10.3390/M1070; conditions: read-out: EC50 against T. b. brucei s427; cited from earlier work
[13] = test system: macrophages RAW264.7; parameters: method as in doi:10.3390/M1070; conditions: normal cell lines; cited from earlier work
[14] = test system: T. b. brucei s427; parameters: method as in earlier work; conditions: cited from earlier work
[15] = Trypanosoma brucei, read-out: T. b. brucei B48 EC50, multi-drug-resistant clone, average ± SEM
[16] = Trypanosoma equiperdum, average ± SEM
[17] = Trypanosoma congolense, average ± SEM
[18] = Leishmania mexicana, read-out: L. mexicana EC50, promastigotes, average ± SEM
[19] = a = EC50 of control for 1, 3, 4
[20] = b = EC50 of control for 5, 6, 7
[21] = Trypanosoma brucei, average ± SEM, at least three independent determinations
[22] = Leishmania mexicana, promastigotes, average ± SEM, read-out: L. mexicana EC50
[23] = printed in brackets beside the µg/mL value

SMILES | T. b. brucei s427 SI [1] | EC50 ([1]; Trypanosoma brucei) [µM] | T. b. brucei B48 RF [2] | T. b. brucei B48 SI [2] | EC50 [2, 15] [µM] | T. evansi RF [3] | T. evansi SI [3] | EC50 ([3]; average ± SEM) [µM] | T. equiperdum RF [4] | T. equiperdum SI [4] | EC50 [4, 16] [µM] | T. congolense RF [5] | T. congolense SI [5] | EC50 [5, 17] [µM] | EC50 [7] [µM] | EC50 [1, 21] [µM] | EC50 [6, 22] [µM] | other results
COc1ccc(C(=O)C[C@H](O)c2c(O)cc(OC)cc2OC)cc1 [Compound 1, (S)-3-hydroxy-3-(2″-hydroxy-4″,6″-dimethoxyphenyl)-1-(4′-methoxyphenyl)propan-1-one] | >8.5 | 35.5 ± 3.6 | 1.4 | >6.0 | 50.2 ± 15 | 1.3 | >6.5 | 46 ± 2.4 | 0.60 | >14 | ~20 | 6.9 | >1.2 | 246 ± 5 | > 300 | – | – | EC50 ([4]; average ± SEM): 21.4 ± 3.9 µM; EC50 [6, 18]: 581 ± 3 µM; toxicity to HEK 293 cells at the highest concentration tested [7]: non-toxic
N=C(N)c1ccc(N=NNc2ccc(C(=N)N)cc2)cc1 [DA, diminazene aceturate, reference compound] | – | – | – | – | – | – | – | – | – | – | – | – | – | – | – | – | – | EC50 [5, 19]: 0.51 µM; EC50 [5, 20]: 0.46 µM
N=C(N)c1ccc(OCCCCCOc2ccc(C(=N)N)cc2)cc1 [PMD, pentamidine isethionate, reference compound] | – | – | approximately 50 | – | – | – | – | – | – | – | – | – | – | – | – | – | – | EC50 ([1]; Trypanosoma brucei, a = EC50 of control for 1, 3, 4): 0.0066 µM; EC50 ([1]; Trypanosoma brucei, b = EC50 of control for 5, 6, 7): 0.0052 µM; EC50 ([2]; Trypanosoma brucei, read-out: T. b. brucei B48 EC50, a = EC50 of control for 1, 3, 4): 0.312 µM; EC50 ([2]; Trypanosoma brucei, read-out: T. b. brucei B48 EC50, b = EC50 of control for 5, 6, 7): 0.288 µM; T. b. brucei B48 RF ([2]; a = control for 1, 3, 4): 47.3; T. b. brucei B48 RF ([2]; b = control for 5, 6, 7): 55.4; EC50 [3, 19]: 0.016 µM; EC50 [3, 20]: 0.0025 µM; EC50 ([4]; Trypanosoma equiperdum, a = EC50 of control for 1, 3, 4): 0.0081 µM; EC50 ([4]; Trypanosoma equiperdum, b = EC50 of control for 5, 6, 7): 0.0033 µM; EC50 ([6]; Leishmania mexicana, a = EC50 of control for 1, 3, 4, read-out: L. mexicana EC50): 1.1 µM; EC50 ([6]; Leishmania mexicana, b = EC50 of control for 5, 6, 7, read-out: L. mexicana EC50): 0.76 µM
CC(=O)O[C@@H]1[C@H]2[C@H]3[C@H]([C@H](OC(C)=O)[C@H](OC(C)=O)[C@]2(C)[C@@H]2[C@@H]1[C@]1(C)C(=C[C@H]2C)OC(=O)[C@@]1(C)O)[C@]1(C)[C@H](C[C@@H]2O[C@@H]2[C@@H]1OC(C)=O)C(=O)[C@@H]3O [Compound 3, taccalonolide A] | >2.2 | – | 0.7 | >3.1 | 45.4 ± 4.1 | 1.0 | >2.2 | 66.3 ± 9.5 | 0.86 | >2.6 | 55.8 | 1.6 | >1.4 | 105 ± 41 | > 143 | 64.7 ± 21.2 | > 285 | L. mexicana EC50 ([6]; promastigotes, average ± SEM): low activity; EC50 [8]: 45.4 to 66.3 µM; RF (cross-resistance) with B48, T. evansi and T. equiperdum ([8]; relative to s427): ≤ 1; activity against T. b. brucei s427 [9]: 11.42 µg/mL; activity against T. b. brucei s427 [9, 23]: 16.3 µM
COc1ccc2c(c1OC)CN(C)c1c-2ccc2cc3c(cc12)OCO3 [Compound 6, dihydrochelerythrin] | 68.0 | – | 1.8 | 37.0 | 2.56 | 0.8 | 87 | 1.09 ± 0.06 | 2.2 | 30.4 | 3.09 ± 0.52 | 6.0 | 11.4 | 8.3 ± 0.57 | 94.4 ± 23.2 | 1.37 ± 0.43 | 5.4 ± 0.6 | EC50 ([2]; read-out: T. b. brucei B48 EC50, multi-drug-resistant clone, average ± SEM): 2.55 ± 0.29 µM; L. mexicana SI [6]: 18; EC50 ([6]; promastigotes, average ± SEM, read-out: L. mexicana EC50): 5.44 ± 0.57 µM; EC50 [8]: 1.37 to 3.09 µM; EC50 [10]: 1.4 to 8.3 µM
CCC(=O)O[C@H]1[C@@H](OC(C)=O)[C@H]2[C@H]([C@@H]3[C@@H](OC(C)=O)[C@@H]4[C@H]([C@H](C)C=C5OC(=O)[C@@](C)(O)[C@@]54C)[C@]31C)[C@@H](O)C(=O)[C@H]1C[C@@H]3O[C@@H]3[C@H](OC(C)=O)[C@]21C [Compound 4, Taccalonolide A 12-propanoate] | >2.6 | – | 1.4 | >1.9 | 75.1 ± 12.3 | 1.6 | >1.7 | 82.7 ± 7.4 | 1.5 | >1.8 | 77.7 ± 10.5 | >2.8 | – | > 140 | > 140 | 53.4 | > 280 | EC50 ([1]; average ± SEM, at least three independent determinations): 53.3 ± 8.6 µM; L. mexicana EC50 ([6]; promastigotes, average ± SEM): low activity; activity against T. b. brucei s427 [9]: 3.13 µg/mL; activity against T. b. brucei s427 [9, 23]: 4.6 µM
CC(C)CNC(=O)/C=C/c1ccc2c(c1)OCO2 [Compound 7, fagaramide] | 20.4 | 17.8 ± 7.3 | 0.6 | 33.8 | 10.9 ± 0.4 | 0.6 | 33.0 | 10.9 ± 0.4 | 1.5 | 13.4 | 27.1 ± 0.1 | 1.9 | 10.6 | 34.4 ± 5.7 | 364 ± 44 | – | 13.3 ± 0.4 | L. mexicana SI [6]: 27; EC50 ([11]; Trypanosoma, read-out: EC50 against all trypanosome species (range)): 10.9 to 34.4 µM; EC50 [10]: 10.9 to 34.4 µM; EC50 [12]: 7.3 µM; EC50 [13]: 215 µM
COc1ccc2c(c1OC)C(CC(C)=O)N(C)c1c-2ccc2cc3c(cc12)OCO3 (centres unmarked) [6-Acetonyl-5,6-dihydrochelerythrine] | – | – | – | – | – | – | – | – | – | – | – | – | – | – | – | – | – | activity against T. b. brucei s427 [14]: no significant activity
CC(=O)O[C@H]1CC[C@]2(C)[C@H]3CC[C@]4(C)C(=CC[C@@]5(C)CCC(C)(C)C[C@H]54)[C@]3(C)CC[C@H]2C1(C)C [Compound 5, taraxerol acetate] | >3.1 | 138 ± 61 | 0.75 | >3.4 | 128 ± 5 | 0.4 | >6.8 | 62.9 ± 1.5 | 0.13 | >20 | ~20 | 1.1 | – | 178 ± 14 | > 427 | – | – | EC50 ([4]; average ± SEM): 21.3 ± 0.3 µM; EC50 [6, 18]: > 427 µM; EC50 ([11]; Trypanosoma equiperdum, all but T. equiperdum, read-out: EC50 against most trypanosome species): > 60 µM; toxicity to HEK 293 cells at the highest concentration tested [7]: not toxic
